Test results reported in patent publication US10004701B2, “Methods and compositions for treating infection” (UNIVERSITY OF ROCHESTER, priority 2012, dated 2018).
Structures can show the parent of a compound that is named as a salt. Where two headings read alike, the source gives them in different places.

Experiments:
Experiment in all cases: AK assay 384-well format, Prestwick library screening
[1] = test system: S. aureus strain USA300-0114; type: cell-based, Staphylococcus aureus; details: 50 μM final drug concentration; for fold induction at 50 µM: Staphylococcus aureus, USA300, 3 h
[2] = test system: E. coli; type: cell-based, Escherichia coli; details: 50 μM final drug concentration; for fold induction at 50 µM: Escherichia coli, 3 h
[3] = test system: E. faecium; type: cell-based, Enterococcus faecium; details: 50 μM final drug concentration; for fold induction at 50 µM: Enterococcus faecium, 3 h
[4] = test system: P. aeruginosa; type: cell-based, Pseudomonas aeruginosa; details: 50 μM final drug concentration; for fold induction at 50 µM: Pseudomonas aeruginosa, 3 h
[5] = test system: E. cloacae; type: cell-based, Enterobacter cloacae; details: 50 μM final drug concentration; for fold induction at 50 µM: Enterobacter cloacae, 3 h
[6] = test system: K. pneumoniae; type: cell-based, Klebsiella pneumoniae; details: 50 μM final drug concentration; for fold induction at 50 µM: Klebsiella pneumoniae, 3 h
[7] = test system: A. baumannii strain 98-37-09; type: cell-based, Acinetobacter baumannii; details: 50 μM final drug concentration; for fold induction at 50 µM: Acinetobacter baumannii, 983709, 3 h
[8] = planktonic S. aureus, 384-well, cutoff for positive-scoring molecules 3-fold increase, read-out: AK-based Prestwick Library Screening Results: S. aureus (increase in extracellular AK activity)
[9] = planktonic E. coli, 384-well, cutoff for positive-scoring molecules 3-fold increase, read-out: AK-based Prestwick Library Screening Results: E. coli (increase in extracellular AK activity)
[10] = planktonic E. faecium, 384-well, cutoff for positive-scoring molecules 3-fold increase, read-out: AK-based Prestwick Library Screening Results: E. faecium (increase in extracellular AK activity)
[11] = planktonic P. aeruginosa, 384-well, cutoff for positive-scoring molecules 3-fold increase, read-out: AK-based Prestwick Library Screening Results: P. aeruginosa (increase in extracellular AK activity)
[12] = planktonic E. cloacae, 384-well, cutoff for positive-scoring molecules 3-fold increase, read-out: AK-based Prestwick Library Screening Results: E. cloacae (increase in extracellular AK activity)
[13] = planktonic K. pneumoniae, 384-well, cutoff for positive-scoring molecules 3-fold increase, read-out: AK-based Prestwick Library Screening Results: K. pneumoniae (increase in extracellular AK activity)
[14] = planktonic A. baumannii, 384-well, cutoff for positive-scoring molecules 3-fold increase, read-out: AK-based Prestwick Library Screening Results: A. baumannii (increase in extracellular AK activity)
[15] = planktonic S. aureus, positive cutoff 3-fold increase, read-out: AK-based Prestwick library screening result, S. aureus (fold increase in extracellular AK activity)
[16] = planktonic E. coli, positive cutoff 3-fold increase, read-out: AK-based Prestwick library screening result, E. coli (fold increase in extracellular AK activity)
[17] = planktonic E. faecium, positive cutoff 3-fold increase, read-out: AK-based Prestwick library screening result, E. faecium (fold increase in extracellular AK activity)
[18] = planktonic P. aeruginosa, positive cutoff 3-fold increase, read-out: AK-based Prestwick library screening result, P. aeruginosa (fold increase in extracellular AK activity)
[19] = planktonic E. cloacae, positive cutoff 3-fold increase, read-out: AK-based Prestwick library screening result, E. cloacae (fold increase in extracellular AK activity)
[20] = planktonic K. pneumoniae, positive cutoff 3-fold increase, read-out: AK-based Prestwick library screening result, K. pneumoniae (fold increase in extracellular AK activity)
[21] = planktonic A. baumannii, positive cutoff 3-fold increase, read-out: AK-based Prestwick library screening result, A. baumannii (fold increase in extracellular AK activity)
[22] = 384-well format, cutoff for positive-scoring molecules 3-fold increase, read-out: AK-based Prestwick Library Screening Results, S. aureus (increase in extracellular AK activity)
[23] = 384-well format, cutoff for positive-scoring molecules 3-fold increase, read-out: AK-based Prestwick Library Screening Results, E. coli (increase in extracellular AK activity)
[24] = 384-well format, cutoff for positive-scoring molecules 3-fold increase, read-out: AK-based Prestwick Library Screening Results, E. faecium (increase in extracellular AK activity)
[25] = 384-well format, cutoff for positive-scoring molecules 3-fold increase, read-out: AK-based Prestwick Library Screening Results, P. aeruginosa (increase in extracellular AK activity)
[26] = 384-well format, cutoff for positive-scoring molecules 3-fold increase, read-out: AK-based Prestwick Library Screening Results, E. cloacae (increase in extracellular AK activity)
[27] = 384-well format, cutoff for positive-scoring molecules 3-fold increase, read-out: AK-based Prestwick Library Screening Results, K. pneumoniae (increase in extracellular AK activity)
[28] = 384-well format, cutoff for positive-scoring molecules 3-fold increase, read-out: AK-based Prestwick Library Screening Results, A. baumannii (increase in extracellular AK activity)

## Cc1cccc(N(C)C(=S)Oc2ccc3ccccc3c2)c1 [Tolnaftate]
[1]; [8]
  fold induction at 50 µM: 1.3
[2]; [9]
  fold induction at 50 µM: 1.1
[3]; [10]
  fold induction at 50 µM: 1
[4]; [11]
  fold induction at 50 µM: 1
[5]; [12]
  fold induction at 50 µM: 1.2
[6]; [13]
  fold induction at 50 µM: 0.9
[7]; [14]
  fold induction at 50 µM: 1.5

## C[C@H]1CC[C@]2(NC1)O[C@H]1C[C@H]3[C@@H]4CC[C@H]5C[C@@H](O)CC[C@]5(C)[C@H]4CC[C@]3(C)[C@H]1[C@@H]2C [Tomatidine]
[1]; planktonic S. aureus, […], read-out: AK-based Prestwick Library Screening Results, S. aureus (increase in extracellular AK activity)
  fold induction at 50 µM: 0.5
[2]; planktonic E. coli, […], read-out: AK-based Prestwick Library Screening Results, E. coli (increase in extracellular AK activity)
  fold induction at 50 µM: 0.7
[3]; planktonic E. faecium, […], read-out: AK-based Prestwick Library Screening Results, E. faecium (increase in extracellular AK activity)
  fold induction at 50 µM: 1.2
[4]; planktonic P. aeruginosa, […], read-out: AK-based Prestwick Library Screening Results, P. aeruginosa (increase in extracellular AK activity)
  fold induction at 50 µM: 0.7
[5]; planktonic E. cloacae, […], read-out: AK-based Prestwick Library Screening Results, E. cloacae (increase in extracellular AK activity)
  fold induction at 50 µM: 1
[6]; planktonic K. pneumoniae, […], read-out: AK-based Prestwick Library Screening Results, K. pneumoniae (increase in extracellular AK activity)
  fold induction at 50 µM: 0.6
[7]; planktonic A. baumannii, […], read-out: AK-based Prestwick Library Screening Results, A. baumannii (increase in extracellular AK activity)
  fold induction at 50 µM: 0.7

## C[C@H]1CC[C@]2(NC1)O[C@H]1C[C@H]3[C@@H]4CC[C@H]5C[C@@H](O[C@@H]6O[C@H](CO)[C@H](O[C@@H]7O[C@H](CO)[C@@H](O)[C@H](O[C@@H]8OC[C@@H](O)[C@H](O)[C@H]8O)[C@H]7O[C@@H]7O[C@H](CO)[C@@H](O)[C@H](O)[C@H]7O)[C@H](O)[C@H]6O)CC[C@]5(C)[C@H]4CC[C@]3(C)[C@H]1[C@@H]2C [Tomatine]
[1]; 384-well format, […], read-out: AK-based Prestwick Library Screening Results, S. aureus (increase in extracellular AK activity)
  fold induction at 50 µM: 0.8
[2]; 384-well format, […], read-out: AK-based Prestwick Library Screening Results, E. coli (increase in extracellular AK activity)
  fold induction at 50 µM: 0.9
[3]; 384-well format, […], read-out: AK-based Prestwick Library Screening Results, E. faecium (increase in extracellular AK activity)
  fold induction at 50 µM: 1
[4]; 384-well format, […], read-out: AK-based Prestwick Library Screening Results, P. aeruginosa (increase in extracellular AK activity)
  fold induction at 50 µM: 0.8
[5]; 384-well format, […], read-out: AK-based Prestwick Library Screening Results, E. cloacae (increase in extracellular AK activity)
  fold induction at 50 µM: 1.1
[6]; 384-well format, […], read-out: AK-based Prestwick Library Screening Results, K. pneumoniae (increase in extracellular AK activity)
  fold induction at 50 µM: 0.7
[7]; 384-well format, […], read-out: AK-based Prestwick Library Screening Results, A. baumannii (increase in extracellular AK activity)
  fold induction at 50 µM: 1

## Cc1cccc(Nc2ccncc2S(=O)(=O)NC(=O)NC(C)C)c1 [Torsemide]
[1]; [15]
  fold induction at 50 µM: 1.5
[2]; [16]
  fold induction at 50 µM: 1.1
[3]; [17]
  fold induction at 50 µM: 1
[4]; [18]
  fold induction at 50 µM: 1.1
[5]; [19]
  fold induction at 50 µM: 1.4
[6]; [20]
  fold induction at 50 µM: 1.3
[7]; [21]
  fold induction at 50 µM: 1.6

## CCCCNc1c(C(=O)OCC)c(C)nc2c1cnn2CC [Tracazolate hydrochloride]
[1]; [15]
  fold induction at 50 µM: 0.5
[2]; [16]
  fold induction at 50 µM: 0.5
[3]; [17]
  fold induction at 50 µM: 1.1
[4]; [18]
  fold induction at 50 µM: 0.6
[5]; [19]
  fold induction at 50 µM: 0.7
[6]; [20]
  fold induction at 50 µM: 0.6
[7]; [21]
  fold induction at 50 µM: 0.8

## NC[C@H]1CC[C@H](C(=O)O)CC1 [Tranexamic acid]
[1]; [22]
  fold induction at 50 µM: 0.7
[2]; [23]
  fold induction at 50 µM: 0.8
[3]; [24]
  fold induction at 50 µM: 1.1
[4]; [25]
  fold induction at 50 µM: 0.9
[5]; [26]
  fold induction at 50 µM: 0.9
[6]; [27]
  fold induction at 50 µM: 0.7
[7]; [28]
  fold induction at 50 µM: 0.8

## N[C@@H]1C[C@H]1c1ccccc1 [Tranylcypromine hydrochloride]
[1]; [22]
  fold induction at 50 µM: 0.8
[2]; [23]
  fold induction at 50 µM: 0.8
[3]; [24]
  fold induction at 50 µM: 1
[4]; [25]
  fold induction at 50 µM: 0.8
[5]; [26]
  fold induction at 50 µM: 0.9
[6]; [27]
  fold induction at 50 µM: 0.6
[7]; [28]
  fold induction at 50 µM: 0.9

## O=c1n(CCCN2CCN(c3cccc(Cl)c3)CC2)nc2ccccn12 [Trazodone hydrochloride]
[1]; [8]
  fold induction at 50 µM: 0.9
[2]; [9]
  fold induction at 50 µM: 0.9
[3]; [10]
  fold induction at 50 µM: 1
[4]; [11]
  fold induction at 50 µM: 1.2
[5]; [12]
  fold induction at 50 µM: 1.3
[6]; [13]
  fold induction at 50 µM: 1
[7]; [14]
  fold induction at 50 µM: 1

## C(#CCN1CCCC1)CN1CCCC1.Cl.Cl [Tremorine dihydrochloride]
[1]; planktonic S. aureus, […]
  AK-based Prestwick Library Screening Results, S. aureus (increase in extracellular AK activity): 0.5
[2]; planktonic E. coli, […]
  AK-based Prestwick Library Screening Results, E. coli (increase in extracellular AK activity): 0.7
[3]; planktonic E. faecium, […]
  AK-based Prestwick Library Screening Results, E. faecium (increase in extracellular AK activity): 1.0
[4]; planktonic P. aeruginosa, […]
  AK-based Prestwick Library Screening Results, P. aeruginosa (increase in extracellular AK activity): 0.6
[5]; planktonic E. cloacae, […]
  AK-based Prestwick Library Screening Results, E. cloacae (increase in extracellular AK activity): 0.7
[6]; planktonic K. pneumoniae, […]
  AK-based Prestwick Library Screening Results, K. pneumoniae (increase in extracellular AK activity): 0.6
[7]; planktonic A. baumannii, […]
  AK-based Prestwick Library Screening Results, A. baumannii (increase in extracellular AK activity): 0.7

## C[C@]12C=CC(=O)C=C1CC[C@H]1[C@@H]3C[C@@H](O)[C@](O)(C(=O)CO)[C@@]3(C)C[C@H](O)[C@@]12F [Triamcinolone]
[1]; [22]
  fold induction at 50 µM: 0.8
[2]; [23]
  fold induction at 50 µM: 1
[3]; [24]
  fold induction at 50 µM: 1
[4]; [25]
  fold induction at 50 µM: 0.7
[5]; [26]
  fold induction at 50 µM: 1.2
[6]; [27]
  fold induction at 50 µM: 0.7
[7]; [28]
  fold induction at 50 µM: 0.9

## Nc1nc(N)c2nc(-c3ccccc3)c(N)nc2n1 [Triamterene]
[1]; [22]
  fold induction at 50 µM: 0.6
[2]; [23]
  fold induction at 50 µM: 0.6
[3]; [24]
  fold induction at 50 µM: 0.7
[4]; [25]
  fold induction at 50 µM: 0.6
[5]; [26]
  fold induction at 50 µM: 1.2
[6]; [27]
  fold induction at 50 µM: 0.5
[7]; [28]
  fold induction at 50 µM: 1.1

## CCOC1O[C@H]([C@@H](COCc2ccccc2)OCc2ccccc2)[C@H](OCc2ccccc2)[C@H]1O (stereo partly drawn) [Tribenoside]
[1]; [15]
  fold induction at 50 µM: 0.6
[2]; [16]
  fold induction at 50 µM: 0.9
[3]; [17]
  fold induction at 50 µM: 1.1
[4]; [18]
  fold induction at 50 µM: 1.1
[5]; [19]
  fold induction at 50 µM: 1.5
[6]; [20]
  fold induction at 50 µM: 0.9
[7]; [21]
  fold induction at 50 µM: 1.7
